The subject of series [1] is N1-S1 rat hepatoma liver tumors. Briefly: Therapeutic effect assessment, hepatic artery single injection, rats with liver tumors. The class given is in vivo. As to conditions: for Therapeutic effect on the tumors: hepatic artery single injection. The source says:
(§1) The tumor cells for the establishment of the animal model with liver tumor were of a rat hepatoma cell line, N1-S-1, purchased from the American Type Culture Collection (ATCC, P.O. Box 1549, Manassas, Va. 20108 USA), and were subcultured to set up a Master Cell Bank and a Working Cell Bank.
(§2) The rat hepatoma cells, N1-S1, were suspended cells that were dispersed in Iscove's Modified Dulbecco's Medium (IMDM) (GibcoBRL®) supplemented with 1% penicillin (GibcoBRL®) and 10% fetal bovine serum (GibcoBRL®), and were cultured in an incubator with 5% CO2, at 37° C.
(§3) When cultured to 1.5×10^6 cell/ml, 4×10^6 cell/0.06 ml of N1-S1 cells were sampled and then implanted into Spawn-Dawley male rats (5-week-old, 150 g) between the liver and liver capsule by surgery, and the wounds were closed by sutures. Rearing of the rats was continued for ten days, and ultrasonic scanning was used to detect any growth of liver tumor and tumor size. After scanning, animals that had developed liver tumors were used to conduct the experiments of tumor growth inhibition, and euthanasia was practiced on the rest of the rats.
The blood vessels of the hepatic artery were dissected from the hepatic tissue of the rats by surgery, and normal saline, an injection solution containing arsenic trioxide without neutron irradiation treatment (concentration: 1 mg/ml; and animal injection dosage: 0.45 mg/kg), and the injection solution prepared in Example 1 which contained radioactive arsenic trioxide having subjected to neutron irradiation treatment (radioactivity range: 2.77˜3.25 mCi/ml; concentration: 1 mg/ml; and animal injection dosage: 0.45 mg/kg dose), were injected respectively via the hepatic artery in single injections.
(§4) Before injection, the size of the liver tumors was examined by ultrasonic scanning. Ultrasonic scanning was conducted in the first week, the second week, and the fifth week, respectively, after start of the injection to observe the change in size of the tumor. Finally, the rats were sacrificed for observing whether there was metastasis.

Series [2] is described as follows: Radiation absorption dose in organs or tissues and tumors (MIRD method, MIRDOSE 3). Particulars: for Radiation absorption dose, Lung: rats with liver tumors. It is filed as in vivo, rats. The procedure: (§5) A fixed amount of radioactive arsenic trioxide (radioactivity range: 2.77˜3.25 mCi/ml, concentration: 1 mg/ml, animal injection dose: 0.45 mg/kg) prepared in Example 1 was injected into the rats with liver tumors through the hepatic artery and tail vein, respectively.
(§6) The rats were sacrificed by taking a large amount of blood from the heart at hours 2, 4, 16, 24 and 48, respectively, after injection, and the blood, hearts, lungs, livers, spleens, kidneys, intestines, bladders, muscles, and tumors were removed. These tissues or organs were placed in respective tubes, and their irradiation intensity was measured by a gamma counter (Wallac 1470 WIZARD). The content percentage of arsenic trioxide per each gram of the tissue or organ was calculated using standard curve regression. There were two or three experimented rats in each experimental group.
Radioactive arsenic trioxide was injected respectively into the tail vein and hepatic artery of the rats by I.V. and I.H. The dosage was calculated using MIRD method, and the residence time in each of the organs and the tumors was calculated using Excel software. Finally, the radiation absorption dose in each of the organs or tissues and the tumors was calculated using MIROSE 3 software.

The test system of series [3] is N1-S1 rat hepatoma liver tumors. Kind of series: Therapeutic effect assessment, liver tumor direct injection, rats with liver tumors. The class given is in vivo. Particulars: for Response / Survival time: individual rats, liver tumor direct injection 0.45 mg/kg once every week, twice in total; for Change of tumor size 4 weeks after injection: liver tumor direct injection.
Text: as §1, §2, §3
The rats with liver tumors were subjected to surgery. After the locations of the liver tumors were found, the tumors were directly injected with normal saline, an injection containing arsenic trioxide without neutron irradiation treatment (concentration: 1 mg/ml; animal injection dosage: 0.45 mg/kg), and the injection prepared in Example 1 which contained radioactive arsenic trioxide having subjected to neutron irradiation treatment (radiation activity range: 2.77˜3.25 mCi/ml; concentration: 1 mg/ml of concentration; and animal injection dosage: 0.45 mg/kg), respectively, once every week, twice in total.
as §4

Series [4] in a line: Biodistribution test of radioactive arsenic trioxide in rats with liver tumors (gamma counter). The class given is in vivo. The procedure: Hepatic Artery Injection:
The hepatic artery was dissected from the hepatic tissue of the rats by surgery. A PE-10 tube was introduced into the hepatic artery, and the test solution containing neutron-irradiated arsenic trioxide as prepared in Example 1 was injected into the hepatic artery. The PE-10 tube was removed after injection, and a surgical thread was used to bind and fix the blood vessels, followed by suturing of the wound.
The test injection solution containing neutron-irradiated arsenic trioxide as prepared in Example 1 was injected into the tail vein using a syringe with needle no. 25.
as §5, §6
Some of the organs and tissues (blood, kidneys and livers) were transferred to the Institute of Nuclear Energy Research for conducting Inductively Coupled Plasma Mass Spectrometry (ICP-MAS) so as to observe the biodistribution of arsenic trioxide in the tumors and organs or tissues.

Series [5] concerns N1-S1 rat hepatoma liver tumors. Kind of series: Therapeutic effect assessment, continuous tail vein injection, rats with liver tumors. It is filed as in vivo. On the set-up: key to Response: Increase in size of tumor (In %) is classified as “Poor Response”; decrease in size of tumor within 0%-40% is classified as “Mild Response”; decrease in size of tumor to 50% or more or disappearance of tumor is classified as “Good Response.”. As to conditions: for Effect on the inhibition of tumor growth / Survival of the group in week 8: continuous tail vein injection; for Response / Survival time: individual rats, continuous tail vein injection 0.45 mg/kg for two weeks.
Text: as §1, §2, §3
The rats with liver tumors were given normal saline, an injection solution containing arsenic trioxide without neutron irradiation treatment (concentration: 1 mg/ml; animal injection dosage: 0.45 mg/kg), and the injection solution prepared in Example 1 which contained radioactive arsenic trioxide having subjected to neutron irradiation treatment (radioactivity range: 2.77˜3.25 mCi/ml; concentration: 1 mg/ml; and animal injection dosage: 0.45 mg/kg), respectively, via tail vein injection, and the injection was continued for two weeks.
Before injection, the size of the liver tumors was examined by ultrasonic scanning. Ultrasonic scanning was conducted in the first week, the second week, and the fifth week, respectively, after start of the injection so as to observe the change in size of the tumor. Finally, the rats were sacrificed for observing whether there was metastasis.

For series [6], the system named is acute promyelocytic leukemia cell lines. Particulars: cited from earlier work.
Series [7] deals with acute promyelocytic leukemia. Particulars: cited from earlier work.
[8] abbreviates: individual rats, hepatic artery single injection 0.45 mg/kg.
[9] abbreviates: individual rats, hepatic artery single injection 0.45 mg/kg, 0.45 mg/kg.

Values joined by “and” are separate entries in the source; they are usually repeats but may differ in a detail not shown here. Identical values can stand only once.

For the molecule `O=[76As]O[76As]=O` (stereo not shown) [Radioactive arsenic trioxide, radioactive arsenic trioxide], the “Therapeutic effect on the tumors” value in series [1] is listed as “complete disappearance of the tumors in some of the animals 2 weeks after injection”. In addition, in series [1] (setting [8]), the Response entry was “Good (decrease in size of tumor to 50% or more or disappearance of tumor is classified as “Good Response.”)” and the Survival time is greater than 42 days. In series [1] (setting [9]), the “Tumor Size After injection Week 2” value is “Disappeared” and the “Tumor Size After injection Week 5” value was “Disappeared”. In series [2] (IH (hepatic artery injection)), the “Radiation absorption dose, Intestine” value came out at 0.23 mGy/MBq; the “Radiation absorption dose, Kidney” value turned out to be 0.28 mGy/MBq; the “Radiation absorption dose, Liver” value is reported as 0.21 mGy/MBq; the “Radiation absorption dose, Muscle” value is reported as 0.12 mGy/MBq. Moreover, in series [2] (IH (hepatic artery injection)), the “Radiation absorption dose, Spleen” value came to 0.95 mGy/MBq; the “Radiation absorption dose, Tumor” value worked out at 21 mGy/MBq; the “Radiation absorption dose, Lung” value came to 0.56 mGy/MBq. Besides, in series [2] (IV (tail vein injection)), the “Radiation absorption dose, Intestine” value is 0.16 mGy/MBq; the “Radiation absorption dose, Kidney” value stood at 0.25 mGy/MBq; the “Radiation absorption dose, Liver” value is given as 0.13 mGy/MBq; the “Radiation absorption dose, Muscle” value came out at 0.06 mGy/MBq. For the same molecule, in series [2] (IV (tail vein injection)), the “Radiation absorption dose, Spleen” value is listed as 0.76 mGy/MBq; the “Radiation absorption dose, Tumor” value worked out at 4.26 mGy/MBq; the “Radiation absorption dose, Lung” value was found to be 0.47 mGy/MBq. In series [3], the Response entry is “Good (decrease in size of tumor to 50% or more or disappearance of tumor is classified as “Good Response.”)”, the Survival time is greater than 30 days and the “Change of tumor size 4 weeks after injection” value is “the tumors in all of the animals shrank in 4 weeks of injection”. Moreover, the “Contents of radioactive arsenic trioxide in the heart, the lung, and the spleen” value in series [4] (0.45 mg/kg, hepatic artery and tail vein injection, hours 2-48 (FIG. 3)) is on record as 1˜3 % ID/g. Besides, the “Residual contents in all the organs or tissues” value in series [4] (48 hours after injection, IV and IH (FIG. 3)) is “dropped”. The “Time of peak content of radioactive arsenic trioxide in the liver tumor” value in series [4] (hepatic artery injection, 0.45 mg/kg (FIG. 2)) is “between hours 2 and 4”. Besides, the “Time after which contents in the liver tumors by the two routes reached identical equivalent values” in series [4] (hepatic artery vs tail vein injection (FIG. 2)) amounted to 16 h. For the same molecule, the “Contents in the bladder and urine relative to other tested organs” value in series [4] (hour 4 after injection via hepatic artery and tail vein) is reported as “second only to that in the tumor”. Further, in series [5], the “Effect on the inhibition of tumor growth” value is “most noticeable”, the “Survival of the group in week 8” value is “all alive in week 8”, the Response result was “Good (decrease in size of tumor to 50% or more or disappearance of tumor is classified as “Good Response.”)” and the Survival time is greater than 56 days.
For arsenic trioxide [reference compound], the “Concentrations inducing cell differentiation” value in series [6] (low concentrations) was 0.1 to 0.5 µmol/L. Further, in series [6] (relatively high concentrations), the Concentrations triggering apoptosis was 0.5 to 2 µmol/L. Moreover, the “Therapeutic effect on the tumors” value in series [1] was “not satisfactory”. Further, the Response entry was “Mild (decrease in size of tumor within 0%-40% is classified as “Mild Response”) (2×) and Poor (2×)” in series [1] (setting [9]); “Mild (decrease in size of tumor within 0%-40% is classified as “Mild Response”) and Poor and Good (decrease in size of tumor to 50% or more or disappearance of tumor is classified as “Good Response.”)” in series [3] (0.45 mg/kg); “Poor (3×) and Mild (decrease in size of tumor within 0%-40% is classified as “Mild Response”) (2×)” in series [5] (0.45 mg/kg). Besides, the Survival time in series [1] (setting [9]) was >42 day (2×) and 36 day and 39 day; in series [3], greater than 30 days; in series [5] (0.45 mg/kg), 14 day (2×) and 42 day and 7 day and 40 day. In series [7] (low-dose, 0.08 mg/kg daily for 28 days intravenously), the “Side effects (gastrointestinal disturbance, facial edema and cardiac toxicity)” value is reported as “reduced”. In series [7] (patients with relapsed acute promyelocytic leukemia, intravenously 0.08 mg/kg daily for 28 days), the complete remission rate was 80%. Also, the “complete remission (CR) rate” value in series [7] (patients with relapsed acute promyelocytic leukemia, intravenously 10 mg/d) was 90%. In addition, the “Change of tumor size 4 weeks after injection” value in series [3] is reported as “slightly smaller than the size of the tumors 1 week after injection, while the tumors in some of the animals still grew”. Further, in series [5], the “Effect on the inhibition of tumor growth” value is reported as “not significant”. Further, the “Survival of the group in week 8” value in series [5] is “still alive in week 8”.

(Values after US7803350B2, “Radioactive arsenic-containing compounds and their uses in the treatment of tumors” (Institute of Nuclear Energy Research Rocaec, priority 2003, dated 2010).)
